Experimental data as given in ChEMBL document CHEMBL1201862, “PubChem BioAssay data set” (2004).
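In this assay, cells in 96-well plates receive the compound at five concentrations for 48 hours. Endpoints are linearly interpolated between the surrounding concentrations. Abbreviation: GI50, concentration required for 50% inhibition of growth.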 Active and inactive are the calls of the source. Cut-off read from the data, not from the text of the source: active = GI50 up to about 1.1 µM and inactive = higher.

Legend:
Experiment in all cases: NCI-60 cell line screen, 48 h
[1] = tested on: DMS-114
[2] = tested on: HOP-18
[3] = tested on: DLD-1
[4] = tested on: LXFL 529
[5] = tested on: M19-MEL
[6] = tested on: RXF 631
[7] = tested on: KM-20L2
[8] = tested on: SNB-78
[9] = tested on: XF498

SMILES	GI50 [1]	GI50 [2]	GI50 [3]	GI50 [4]	GI50 [5]	GI50 [6]	GI50 [7]	GI50 [8]	GI50 [9]
Cc1c(CCCl)c(Cl)n2c(nc3ccccc32)c1C#N	1.13 µM (inactive)	1.51 µM (inactive)	1.12 µM (active)	0.459 µM (active)	4.21 µM (inactive)	0.568 µM (active)	0.641 µM (active)	1.77 µM (inactive)	
COc1ccc(N2C(=O)[C@H]3[C@H]4CC(C(C)(C)C)CC[C@H]4c4c(n(C)c5ccccc45)[C@H]3C2=O)cc1 (stereo partly specified)	> 100 µM (inactive)	> 100 µM (inactive)	< 0.01 µM (active)	> 100 µM (inactive)	< 0.01 µM (active)				> 100 µM (inactive)
COc1ccc(C(=O)NCCC2=CCCCC2)cc1	> 100 µM (inactive)	> 100 µM (inactive)	> 100 µM (inactive)		> 100 µM (inactive)		> 100 µM (inactive)	> 100 µM (inactive)	> 100 µM (inactive)
CCn1c(CSc2nc(-c3ccccc3)c(-c3ccccc3)[nH]2)n[nH]c1=S	> 100 µM (inactive)		> 100 µM (inactive)	> 100 µM (inactive)	> 100 µM (inactive)		> 100 µM (inactive)	> 100 µM (inactive)	> 100 µM (inactive)
CCn1cnc2c(=S)nc(N)[nH]c21	> 100 µM (inactive)		> 100 µM (inactive)	> 100 µM (inactive)	> 100 µM (inactive)		> 100 µM (inactive)	> 100 µM (inactive)	
CN(C)CCNC(=O)c1cccc2c1nc(-c1ccccn1)c1ccccc12	18.3 µM (inactive)	21.4 µM (inactive)	11.9 µM (inactive)		18.1 µM (inactive)			25.3 µM (inactive)	
C#Cc1cccc(N2C(=O)CC(=P(c3ccccc3)(c3ccccc3)c3ccccc3)C2=O)c1	19.9 µM (inactive)		> 100 µM (inactive)	11.8 µM (inactive)	42.9 µM (inactive)			> 100 µM (inactive)	0.405 µM (active)
CN(C)NC1=C([N+](=O)[O-])C=NN(c2ccccc2)C1	1.84 µM (inactive)	1.81 µM (inactive)	1.83 µM (inactive)	1.65 µM (inactive)	1.81 µM (inactive)	1.53 µM (inactive)	1.9 µM (inactive)	2.17 µM (inactive)	2.36 µM (inactive)
O=C(c1nc2ccc(Cl)cc2[nH]c1=O)C(O)c1ccco1 (stereo unspecified)	4.91 µM (inactive)	> 100 µM (inactive)	> 100 µM (inactive)	42.9 µM (inactive)	> 100 µM (inactive)	6.04 µM (inactive)	24.5 µM (inactive)		
O=C(Nc1ccc(Br)cc1)C(=O)C(C(=O)c1ccccc1F)C1OC(=O)c2ccccc21 (stereo unspecified)	14 µM (inactive)	26.7 µM (inactive)	26.2 µM (inactive)	23.1 µM (inactive)	17.2 µM (inactive)	34.8 µM (inactive)	40.1 µM (inactive)	27.8 µM (inactive)	
CC(=O)O[C@H]1C(=O)[C@@]2(C)C([C@H](OC(=O)c3ccccc3)[C@]3(O)C[C@H](OC(=O)[C@H](O)[C@@H](NC(=O)c4ccc(Cl)cc4)c4ccccc4)C(C)=C1C3(C)C)C1(OC(C)=O)CO[C@@H]1C[C@@H]2O (stereo partly specified)	< 0.01 µM (active)		0.0222 µM (active)	< 0.01 µM (active)	< 0.01 µM (active)		< 0.01 µM (active)		0.0303 µM (active)
CC12N=NN(c3ccc([N+](=O)[O-])cc3)C1(O)c1ccccc1C2=O (stereo unspecified)	> 100 µM (inactive)			> 100 µM (inactive)	> 100 µM (inactive)		> 100 µM (inactive)		> 100 µM (inactive)
COc1cc(Br)c(/C=N/N=C(\N)NO)cc1OC	12.4 µM (inactive)	4.72 µM (inactive)	25.9 µM (inactive)	10.9 µM (inactive)	19.6 µM (inactive)	11.6 µM (inactive)	5.73 µM (inactive)	73.3 µM (inactive)	13.6 µM (inactive)
C=C=C(C(=O)OC)[S+]([O-])c1ccc([N+](=O)[O-])cc1[N+](=O)[O-] (stereo unspecified)	21 µM (inactive)	44.2 µM (inactive)	16.2 µM (inactive)	16.8 µM (inactive)	25.4 µM (inactive)	42 µM (inactive)	26.5 µM (inactive)		39.1 µM (inactive)
COCOCCCCCO[Si](C)(C)C(C)(C)C	17.5 µM (inactive)	30.8 µM (inactive)	31.6 µM (inactive)	26.9 µM (inactive)	28.7 µM (inactive)	19.4 µM (inactive)	22.8 µM (inactive)	22.8 µM (inactive)	15.7 µM (inactive)
Cc1cc([N+](=O)[O-])c(S(=O)(=O)c2ccccc2)c([N+](=O)[O-])c1	3.14 µM (inactive)	16.1 µM (inactive)	4 µM (inactive)	3.66 µM (inactive)	11.7 µM (inactive)	38.6 µM (inactive)	17.9 µM (inactive)	17.2 µM (inactive)	4.35 µM (inactive)
S=C1OC2C3C4CC5C3C(O1)C1C5C4C21 (stereo unspecified)	45.6 µM (inactive)	> 100 µM (inactive)	> 100 µM (inactive)	> 100 µM (inactive)	> 100 µM (inactive)		> 100 µM (inactive)	> 100 µM (inactive)	
COc1ccc(C2=C[C@]3(O)CCCN3C[C@@H]2c2ccc(OC)c(OC)c2)cc1		< 0.0001 µM (active)	< 0.0001 µM (active)	< 0.0001 µM (active)			< 0.0001 µM (active)	< 0.0001 µM (active)	< 0.0001 µM (active)
O=C(O)/C=C\C(=O)c1ccc(Cl)cc1	21.4 µM (inactive)	> 69.2 µM (inactive)	35.2 µM (inactive)	21.8 µM (inactive)	24.3 µM (inactive)	> 100 µM (inactive)	36.7 µM (inactive)	33.7 µM (inactive)	27.7 µM (inactive)
CN(C)c1ccc2c(c1)C(=O)N(OS(=O)(=O)c1ccc([N+](=O)[O-])cc1)C2=O	> 10 µM (inactive)	> 100 µM (inactive)	24 µM (inactive)	17.9 µM (inactive)	19 µM (inactive)	22.3 µM (inactive)		26.7 µM (inactive)	16.7 µM (inactive)
N#Cc1c(-c2ccco2)cc(-c2ccc(N)cc2)[nH]c1=O	> 100 µM (inactive)	> 100 µM (inactive)	> 100 µM (inactive)	> 100 µM (inactive)		> 100 µM (inactive)	> 100 µM (inactive)		
CC1CC(C)C(=O)C(C(=O)CC2CC(=O)NC2=O)C1 (stereo unspecified)	> 100 µM (inactive)	> 100 µM (inactive)	> 100 µM (inactive)	> 100 µM (inactive)	> 100 µM (inactive)	72.6 µM (inactive)	> 100 µM (inactive)	> 100 µM (inactive)	> 100 µM (inactive)
Cc1cc(NS(=O)(=O)c2ccc(Nc3c4ccccc4nc4c(C(=O)Nc5ccc(S(=O)(=O)N=C(N)N)cc5)ccc(Cl)c34)cc2)no1	27.1 µM (inactive)	16.4 µM (inactive)	47.3 µM (inactive)	31.3 µM (inactive)	39.8 µM (inactive)		98.4 µM (inactive)	23.4 µM (inactive)	31.4 µM (inactive)
O=C(O)CSc1nnc(-c2ccco2)[nH]1			> 100 µM (inactive)	> 100 µM (inactive)	> 100 µM (inactive)	> 100 µM (inactive)	> 100 µM (inactive)	> 100 µM (inactive)	> 100 µM (inactive)
COC(=O)c1c(C)oc2ccc(OC(C)=O)cc12	> 100 µM (inactive)				> 100 µM (inactive)		> 100 µM (inactive)	> 100 µM (inactive)	
CN(C)c1nc(N(C)C)nc(N(C)C)n1 [ALTRETAMINE]	> 148 µM (inactive)	53.3 µM (inactive)	> 132 µM (inactive)	> 150 µM (inactive)	> 144 µM (inactive)		> 150 µM (inactive)	> 150 µM (inactive)	109 µM (inactive)
COc1ccc(OC)c(NC(=O)CCC/C(CC(=O)c2ccc(O)c(OC)c2)=N\NC(=O)C[N+](C)(C)C)c1	> 100 µM (inactive)	> 100 µM (inactive)	> 100 µM (inactive)	> 100 µM (inactive)	> 100 µM (inactive)	> 100 µM (inactive)	> 100 µM (inactive)		> 100 µM (inactive)
[O-][S+]1CSCS1 (stereo unspecified)	> 100 µM (inactive)	> 100 µM (inactive)	> 100 µM (inactive)	> 100 µM (inactive)	> 100 µM (inactive)	85.9 µM (inactive)	> 100 µM (inactive)	91.8 µM (inactive)	> 100 µM (inactive)
CC1(Cl)CC2OC3(Br)C=CC(C)(O)C2(CC1Br)C3(C)C (stereo unspecified)	> 100 µM (inactive)	> 100 µM (inactive)	> 100 µM (inactive)	> 100 µM (inactive)	> 100 µM (inactive)		> 100 µM (inactive)	> 100 µM (inactive)	
